Results on 17 molecules are retold here after ChEMBL document CHEMBL1201862, “PubChem BioAssay data set” (2004).

Active and inactive are the calls of the source.

The target of one assay is T1, Aminopeptidase N (Plasmodium falciparum FcB1/Columbia, UniProt O96935).
T1 sequence (O96935 whole entry): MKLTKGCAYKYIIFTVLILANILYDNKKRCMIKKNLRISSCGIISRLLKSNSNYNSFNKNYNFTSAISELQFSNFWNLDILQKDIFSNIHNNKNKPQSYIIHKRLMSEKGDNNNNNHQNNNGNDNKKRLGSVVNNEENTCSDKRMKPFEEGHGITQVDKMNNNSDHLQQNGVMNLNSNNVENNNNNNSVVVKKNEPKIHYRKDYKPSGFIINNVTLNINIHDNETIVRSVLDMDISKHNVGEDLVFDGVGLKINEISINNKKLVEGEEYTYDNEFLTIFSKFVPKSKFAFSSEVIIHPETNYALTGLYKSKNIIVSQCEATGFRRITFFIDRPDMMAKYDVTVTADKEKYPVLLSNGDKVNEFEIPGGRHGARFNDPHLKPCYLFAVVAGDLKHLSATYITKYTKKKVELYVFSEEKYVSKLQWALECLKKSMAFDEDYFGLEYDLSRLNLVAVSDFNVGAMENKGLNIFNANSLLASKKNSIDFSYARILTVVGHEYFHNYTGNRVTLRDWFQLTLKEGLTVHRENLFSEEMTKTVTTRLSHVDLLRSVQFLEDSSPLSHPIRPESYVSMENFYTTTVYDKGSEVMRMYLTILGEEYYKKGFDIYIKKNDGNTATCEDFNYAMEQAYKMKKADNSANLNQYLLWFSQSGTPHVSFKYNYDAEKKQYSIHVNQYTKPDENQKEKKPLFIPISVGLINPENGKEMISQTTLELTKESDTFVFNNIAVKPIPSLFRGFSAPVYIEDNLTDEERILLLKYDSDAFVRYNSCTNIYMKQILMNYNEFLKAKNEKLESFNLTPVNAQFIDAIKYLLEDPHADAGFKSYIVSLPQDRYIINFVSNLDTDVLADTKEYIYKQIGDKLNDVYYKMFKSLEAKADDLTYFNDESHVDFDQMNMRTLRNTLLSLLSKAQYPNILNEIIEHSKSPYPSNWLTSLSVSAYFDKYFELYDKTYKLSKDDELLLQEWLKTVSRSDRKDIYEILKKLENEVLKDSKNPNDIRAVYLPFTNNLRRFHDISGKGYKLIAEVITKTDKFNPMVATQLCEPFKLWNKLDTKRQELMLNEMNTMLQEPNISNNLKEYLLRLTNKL
Put plainly: P. falciparum M1AAP inhibitors, biochemical, fluorogenic H-Leu-NHMec substrate, 1536-well (AID 1445). The arrangement: species or system Plasmodium falciparum 3D7, 3D7.

A short description of assay [1]: P. falciparum 3D7-ScDHODH growth inhibitors, dose response, SYBR Green, dry powder samples (AID 1159570).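 Also: parasite growth measured after 72 hours of compound exposure.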 The class given is functional, cell-based.
The nature of assay [2]: P. falciparum ATP4 D1247Y mutant growth inhibitors, dose response, NITD609-resistant line, SYBR Green, dry powder (AID 1159571).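 Also: parasites synchronized at ring stage by sorbitol before testing.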 The class given is functional, cell-based.
Assay [3] in a line: P. falciparum Dd2 growth inhibitors, dose response, SYBR Green, cherry-picked samples (AID 1159567). The class given is functional, cell-based.
A short description of assay [4]: P. falciparum Dd2 growth inhibitors, dose response, SYBR Green, dry powder samples (AID 1159566).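 Also: potency for growth inhibition with lower SYBR green DNA signal.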 The class given is functional, cell-based.
Another assay has as its target Prothrombin (Homo sapiens, UniProt P00734). In words: Thrombin 1536 HTS Dose Response Confirmation. [Related pubchem assays: 1046 (Thrombin 1536 HTS; hits were confirmed in this assay)]. The class given is functional.
Assay [5] is described as follows: cytotoxicity in KRAS-transformed pancreatic duct cells, primary screen, cell-based, fluorescence, HTS (AID 431). It counts as functional. The conditions noted are these: Homo sapiens.
Assay [6] in a line: cytotoxicity in HPDE-C7 cells, cell-based, fluorescence, HTS (AID 430). The class given is functional. The conditions noted are these: Homo sapiens.
Assay [7] concerns the target T2, Carboxy-terminal domain RNA polymerase II polypeptide A small phosphatase 1 (Homo sapiens, UniProt Q9GZU7).
T2 sequence (Q9GZU7 whole entry): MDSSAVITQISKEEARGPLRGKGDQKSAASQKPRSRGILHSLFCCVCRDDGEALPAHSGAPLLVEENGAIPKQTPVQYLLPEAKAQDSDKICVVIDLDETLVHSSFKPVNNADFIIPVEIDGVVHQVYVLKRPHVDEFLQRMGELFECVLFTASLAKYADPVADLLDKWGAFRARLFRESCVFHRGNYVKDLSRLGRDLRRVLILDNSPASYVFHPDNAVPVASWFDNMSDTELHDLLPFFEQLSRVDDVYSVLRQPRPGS
Put plainly: inhibitors of CTDSP1, concentration-response testing, biochemical assay, absorbance-based, actives from ultra-high-throughput screening (AID 540297). It counts as functional.

The nature of assay [8]: inhibitors of intracellular T. cruzi replication, confirmation, NIH3T3 host cells, beta-gal luminescence (AID 2044).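 Also: intracellular parasites grown in NIH/3T3 mouse fibroblasts as host cells; luminescent beta-galactosidase reporter signal from transgenic T. cruzi replicating inside host cells; inhibitors lower the luminescence signal.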 The class given is functional, cell-based.
Assay [9] can be described thus: cytotoxicity toward NIH3T3 fibroblasts, dose response, counter-screen, cell-based, ATP luminescence, mouse fibroblasts (AID 2010).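 Also: cells exposed to compound for about 90 hours before reading.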 The class given is functional.
The next assay addresses Genome polyprotein (dengue virus type 2, UniProt P29990). Put plainly: Dengue-2 NS5 methyltransferase inhibitors, primary screen, biochemical, confirmation dose response (AID 588689). The class given is functional.
The next assay concerns the target Paired box protein Pax-8 (Homo sapiens, UniProt Q06710). In words: inhibitors of PAX8-driven TPO luciferase reporter, dose response, RMG-I cells, cherry-pick (AID 687027).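 Also: luciferase reporter driven by Pax8 target thyroperoxidase promoter measured by SteadyGlo luminescence.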 It counts as functional, cell-based.
Assay [10] in a line: NIH:OVCAR-3 ovarian cancer cell cytotoxicity, dose response, PAX8 inhibitor project, plate reader, dry powder samples (AID 743044). The class given is functional, cell-based.
Assay [11] is described as follows: cytotoxicity in OVCAR8 ovarian cancer cells, dose response, PAX8 project, cell-based, plate reader, dry powder samples (AID 743197). The class given is functional. The conditions noted are these: OVCAR-8.
Assay [12] is described as follows: HepG2 cell cytotoxicity, dose response, cytotoxicity control for Shn3 inhibitor project, CellTiter-Glo, cherry-picked (AID 624134). It counts as functional, cell-based. (In ATP-based viability assays light output follows the ATP content of the culture.)
A short description of assay [13]: Shn3 3'UTR reporter inhibitors, dose response, cell-based, Clone20 osteoblasts, firefly luciferase, cherry-picked (AID 624132).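 Also: firefly luciferase luminescence from reporter carrying the Shn3 3'UTR in osteoblasts.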 It counts as functional.
Another assay deals with Cytochrome P450 2C19 (Homo sapiens, UniProt P33261). In words: Cytochrome panel assay with activity outcomes. Panel member name: p450-cyp2c19 Compounds with AC50 equal or less than 10 uM are considered active. It counts as functional. To be noted: read-out: AC50.
Assay [14] deals with T3, Corticotropin-releasing factor receptor 2/Corticotropin-releasing factor-binding protein (Homo sapiens, UniProt P24387+Q13324).
T3 sequence (Q13324 whole entry): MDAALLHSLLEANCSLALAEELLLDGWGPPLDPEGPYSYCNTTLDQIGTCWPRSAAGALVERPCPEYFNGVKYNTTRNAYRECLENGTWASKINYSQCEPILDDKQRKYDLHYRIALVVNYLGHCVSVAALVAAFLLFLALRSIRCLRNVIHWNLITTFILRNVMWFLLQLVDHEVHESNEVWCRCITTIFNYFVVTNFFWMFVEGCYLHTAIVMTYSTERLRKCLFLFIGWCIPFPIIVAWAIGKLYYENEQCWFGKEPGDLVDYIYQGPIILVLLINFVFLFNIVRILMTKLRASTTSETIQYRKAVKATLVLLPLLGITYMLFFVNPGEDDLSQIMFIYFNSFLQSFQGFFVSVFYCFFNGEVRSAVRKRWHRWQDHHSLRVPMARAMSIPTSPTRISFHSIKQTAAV
T3 sequence (P24387 whole entry): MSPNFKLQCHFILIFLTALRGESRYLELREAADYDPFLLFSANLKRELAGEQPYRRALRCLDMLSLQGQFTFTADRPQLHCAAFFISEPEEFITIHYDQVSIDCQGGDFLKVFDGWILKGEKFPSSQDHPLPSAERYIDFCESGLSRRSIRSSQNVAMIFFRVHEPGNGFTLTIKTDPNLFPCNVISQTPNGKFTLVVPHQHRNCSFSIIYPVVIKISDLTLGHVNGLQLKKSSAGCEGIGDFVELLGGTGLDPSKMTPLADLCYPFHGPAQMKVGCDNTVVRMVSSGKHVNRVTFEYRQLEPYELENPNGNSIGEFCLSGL
Put plainly: Dose Response confirmation of uHTS hits for small molecule antagonists of the CRF-binding protein and CRF-R2 receptor complex. To be noted: read-out: IC50_Mean. The class given is functional.

Assay [15] has as its target T3, Corticotropin-releasing factor receptor 2/Corticotropin-releasing factor-binding protein. Put plainly: activators of CRF receptor 2 with binding protein – uHTS hits, confirmation (AID 602473). The class given is functional. To be noted: read-out: EC50_Mean.

Cytochrome P450 2C19, sequence (P33261 whole entry): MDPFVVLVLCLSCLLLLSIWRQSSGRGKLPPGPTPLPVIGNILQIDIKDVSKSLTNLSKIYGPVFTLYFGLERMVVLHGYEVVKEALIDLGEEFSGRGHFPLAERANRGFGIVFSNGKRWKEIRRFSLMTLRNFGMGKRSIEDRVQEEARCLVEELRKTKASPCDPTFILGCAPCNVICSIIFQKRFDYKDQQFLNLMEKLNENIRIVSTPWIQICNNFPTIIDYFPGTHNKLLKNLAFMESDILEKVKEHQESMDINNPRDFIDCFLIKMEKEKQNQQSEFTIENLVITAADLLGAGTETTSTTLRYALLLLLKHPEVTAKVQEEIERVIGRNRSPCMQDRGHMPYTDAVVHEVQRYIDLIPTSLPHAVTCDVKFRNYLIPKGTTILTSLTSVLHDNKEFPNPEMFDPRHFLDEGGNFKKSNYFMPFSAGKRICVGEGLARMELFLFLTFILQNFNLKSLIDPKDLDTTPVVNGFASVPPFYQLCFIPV
Genome polyprotein, sequence (P29990 2492-3391 limits assumed): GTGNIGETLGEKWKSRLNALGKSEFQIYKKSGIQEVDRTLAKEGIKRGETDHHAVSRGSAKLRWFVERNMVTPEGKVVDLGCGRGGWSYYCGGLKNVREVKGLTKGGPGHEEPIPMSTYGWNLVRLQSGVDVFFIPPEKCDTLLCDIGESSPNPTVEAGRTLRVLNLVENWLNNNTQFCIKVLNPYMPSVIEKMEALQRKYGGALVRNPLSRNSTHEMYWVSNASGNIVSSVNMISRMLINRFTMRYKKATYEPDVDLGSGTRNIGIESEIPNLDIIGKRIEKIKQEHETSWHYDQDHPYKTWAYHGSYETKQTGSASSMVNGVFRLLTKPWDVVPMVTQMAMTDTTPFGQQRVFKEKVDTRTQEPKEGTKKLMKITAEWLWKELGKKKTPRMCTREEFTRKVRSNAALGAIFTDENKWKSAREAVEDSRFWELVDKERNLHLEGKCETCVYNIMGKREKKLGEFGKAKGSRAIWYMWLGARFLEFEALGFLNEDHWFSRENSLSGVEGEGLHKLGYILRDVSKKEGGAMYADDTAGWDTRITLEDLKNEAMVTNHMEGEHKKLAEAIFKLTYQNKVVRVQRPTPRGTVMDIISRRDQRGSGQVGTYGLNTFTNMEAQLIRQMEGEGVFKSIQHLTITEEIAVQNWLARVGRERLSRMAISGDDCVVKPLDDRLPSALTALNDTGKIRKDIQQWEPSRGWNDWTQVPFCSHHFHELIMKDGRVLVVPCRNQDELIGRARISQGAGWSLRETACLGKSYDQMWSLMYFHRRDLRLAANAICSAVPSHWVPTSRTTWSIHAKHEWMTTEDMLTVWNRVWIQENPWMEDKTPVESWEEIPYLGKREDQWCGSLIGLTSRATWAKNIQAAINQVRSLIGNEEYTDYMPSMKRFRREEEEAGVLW
Paired box protein Pax-8, sequence (Q06710 whole entry): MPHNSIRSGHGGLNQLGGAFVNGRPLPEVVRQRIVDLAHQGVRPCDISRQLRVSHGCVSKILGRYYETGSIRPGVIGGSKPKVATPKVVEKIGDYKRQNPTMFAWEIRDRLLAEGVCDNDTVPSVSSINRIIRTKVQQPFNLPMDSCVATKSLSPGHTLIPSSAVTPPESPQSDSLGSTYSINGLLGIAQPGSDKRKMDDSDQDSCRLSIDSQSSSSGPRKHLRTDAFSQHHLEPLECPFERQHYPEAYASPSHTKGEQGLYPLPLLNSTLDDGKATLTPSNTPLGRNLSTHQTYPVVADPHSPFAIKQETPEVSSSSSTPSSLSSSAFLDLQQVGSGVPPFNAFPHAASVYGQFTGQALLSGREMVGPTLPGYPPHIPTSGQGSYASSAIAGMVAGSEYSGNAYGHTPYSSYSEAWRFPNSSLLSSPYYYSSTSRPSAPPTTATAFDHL

Regarding `COc1cc(/C=C(/C#N)c2nc3ccccc3[nH]2)ccc1OCc1ccc(C(=O)O)o1`, the IC50 on Aminopeptidase N was 52.1 µM (active).
In the case of `COc1ccc(NC(=O)N2CCC3(CC2)CN(C(=O)C2CCC2)[C@H](CO)c2c3c3ccc(OC)cc3n2C)cc1`, the concentration at half-maximal activity (AC50) (commonly the midpoint of the concentration-response curve, whichever way the signal moves) in [1] was 0.0417 µM (active); in assay [2], 0.0845 µM (active); in assay [3], 0.969 µM (active); in assay [4] it was 0.0967 µM (active).
For `N/C(=N\S(=O)(=O)c1ccccc1)c1ccc([N+](=O)[O-])cc1`, on Prothrombin, the IC50 is on record as > 50 µM (not active).
On to `C[C@@H]1CN([C@@H](C)CO)S(=O)(=O)c2ccc(C#CC3CCCC3)cc2O[C@H]1CN(C)C(=O)Cc1ccncc1`, for which the AC50 in assay [1] was 2.98 µM (active); in [2] it was 1.72 µM (active); in assay [3], 1.16 µM (active); in assay [4] it was 0.722 µM (active).
For `CC(C)N1CCC2(CC1)N=C(c1ccc3c(c1)OCO3)CC(c1cc(Cl)ccc1O)N2` (stereo unspecified), the results for the EC50 in [5] and in assay [6] were 3.54 µM (active) and 4.25 µM (active), respectively.
For `CC1=NN(c2nc(-c3ccc(C)cc3)cs2)C(=O)C1N=Nc1ccccc1O` (stereo unspecified), the IC50 was 3.69 µM (active) in [7] and 3.37 µM (active) on Aminopeptidase N. The EC50 is 1.63 µM (active) in [8] and > 60 µM (not active) in assay [9].
Consider `O=C(O)c1cccc(NC(S)=NC(NC(=O)c2ccccc2[N+](=O)[O-])C(Cl)(Cl)Cl)c1` (stereo unspecified), for which the IC50 at Aminopeptidase N is 58.6 µM (active).
Regarding `Cc1cc2ncn(S(=O)(=O)N3CCOCC3)c2cc1C`, the IC50 against Prothrombin is reported as > 50 µM (not active).
`CCOc1cc(/C=N/NC2=NC(=O)C(CC(=O)O)S2)ccc1OCc1ccccc1Cl` (stereo unspecified): the IC50 in assay [7] was 4.28 µM (active); at Genome polyprotein it was 51.7 µM (active).
With `C[C@H]1CN([C@@H](C)CO)S(=O)(=O)c2ccc(C#Cc3ccncc3)cc2O[C@H]1CN(C)C(=O)C1CCCCC1`, the concentration at half-maximal activity (AC50) at Paired box protein Pax-8 is 2.68 µM (active); in [10], 12.9 µM (active); in assay [11], 52.3 µM (active).
For `CCCN1C(=O)/C(=C/c2c(N3CCNC(=O)C3CC(=O)OC)nc3c(C)cccn3c2=O)SC1=S` (stereo unspecified), the IC50 on Aminopeptidase N is 68.1 µM (active).
As to `C[C@@H]1CCCCO[C@H](CN(C)Cc2ccccc2)[C@@H](C)CN([C@H](C)CO)C(=O)c2cc(NC(=O)c3ccccc3)ccc2O1`, the values for the AC50 in assay [12] and in assay [13] were > 70 µM (inactive) and 31.2 µM (active), respectively.
As to `Cc1ccc(S(=O)(=O)NC(=O)N2CCC(C)CC2)cc1`, the IC50 on Prothrombin was > 50 µM (not active).
Regarding `CCCC(=O)n1nc(-c2cccnc2)nc1N`, the AC50 at Cytochrome P450 2C19 is 31.6 µM (inconclusive). For the same molecule, at Prothrombin, the IC50 is 0.986 µM (active).
Turning to `O=C(c1cccs1)n1nc(-c2cccnc2)nc1NCc1ccco1`, at Prothrombin, the IC50 is 0.711 µM (active).
With `CN1CCC2(CC1)Nc1nc(SCc3ccc(Cl)cc3)nn1C1=C2CN(C)CC1`, the IC50 in [14] was > 47.1 µM (inactive). For the same molecule, the values for the EC50 in assay [5], in assay [6] and in [15] were > 20 µM (not active), > 20 µM (not active) and > 53 µM (inactive), respectively.
Regarding `CC(=O)Nc1nonc1-n1nnc(C(=O)NCc2ccccc2)c1C`, the EC50 in [5] and in assay [6] was > 20 µM (not active) in each case.
